Assay results reported in ChEMBL document CHEMBL1123796, “New antitumor agents containing the anthracene nucleus” (1987).

Legend:
Format in all cases: functional
[1] = In vitro inhibition of human UACC-66 ovarian tumor cell line growth.; conditions: read-out: ID50 (the source's name)
WiDr = assay: Tested in vitro for inhibitory activity of human tumor cell growth against WIDR colon tumor, by using clonogenic assays.; conditions: read-out: ID50 (the source's name)
[2] = Tested in vitro for inhibitory activity of human tumor cell growth against HEC 1A endometrial tumor, by using clonogenic assays.; conditions: read-out: ID50 (the source's name)
RPMI-8226 [3] = assay: In vitro inhibition of human 8226 myeloma tumor cell line growth.; conditions: read-out: ID50 (the source's name)
P388 [4] = assay: Antileukemic activity against P-388 in mice at a dose of 100 mg/kg administered intraperitoneally after 3 day treatment(Trial 2); conditions: Mus musculus, P388, ip, 72 h, route intraperitoneal
P388 [5] = assay: Antileukemic activity against P-388/ADR (P-388 cells resistant to adriamycin) in mice at a dose of 44 mg/kg administered intraperitoneally after 3 day treatment(Trial 2); conditions: Mus musculus, P388, ip, 72 h, route intraperitoneal
P388 [6] = assay: Antileukemic activity against P-388/ADR (P-388 cells resistant to adriamycin) in mice at a dose of 100 mg/kg administered intraperitoneally after 3 day treatment(Trial 2); conditions: Mus musculus, P388, ip, 72 h, route intraperitoneal
P388 [7] = assay: Antileukemic activity against P-388/ADR (P-388 cells resistant to adriamycin) in mice at a dose of 30 mg/kg administered intraperitoneally after 3 day treatment(Trial 2); conditions: Mus musculus, P388, ip, 72 h, route intraperitoneal
P388 [8] = assay: Antileukemic activity against P-388 in mice at a dose of 44 mg/kg administered intraperitoneally after 3 day treatment(Trial 2); conditions: Mus musculus, P388, ip, 72 h, route intraperitoneal
P388 [9] = assay: Antileukemic activity against P-388/ADR (P-388 cells resistant to adriamycin) n mice at a dose of 67 mg/kg administered intraperitoneally after 3 day treatment(Trial 2); conditions: Mus musculus, P388, ip, 72 h, route intraperitoneal
P388 [10] = assay: Antileukemic activity against P-388 in mice at a dose of 100 mg/kg administered intraperitoneally after 3 day treatment; conditions: Mus musculus, P388, ip, 72 h, route intraperitoneal
P388 [11] = assay: Antileukemic activity against P-388 in mice at a dose of 125 mg/kg administered intraperitoneally after 3 day treatment; conditions: Mus musculus, P388, ip, 72 h, route intraperitoneal
P388 [12] = assay: Antileukemic activity against P-388 in mice at a dose of 67 mg/kg administered intraperitoneally after 3 day treatment(Trial 2); conditions: Mus musculus, P388, ip, 72 h, route intraperitoneal
P388 [13] = assay: Antileukemic activity against P-388 in mice at a dose of 67 mg/kg administered intraperitoneally after 3 day treatment; conditions: Mus musculus, P388, ip, 72 h, route intraperitoneal
P388 [14] = assay: Antileukemic activity against P-388 in mice at a dose of 44 mg/kg administered intraperitoneally after 3 day treatment; conditions: Mus musculus, P388, ip, 72 h, route intraperitoneal
P388 [15] = assay: Antileukemic activity against P-388 in mice at a dose of 30 mg/kg administered intraperitoneally after 3 day treatment(Trial 2); conditions: Mus musculus, P388, ip, 72 h, route intraperitoneal
RPMI-8226 [16] = assay: Effect on protein synthesis was determined by incorporation of radioligand into 8226 human myeloma cells at a concentration of 1 ug/mL. (*: >50% cell kill)
RPMI-8226 [17] = assay: Effect on RNA synthesis was determined by incorporation of radioligand into 8226 human myeloma cells at a concentration of 1 ug/mL. (*: >50% cell kill)
L1210 [18] = assay: Effect on DNA synthesis was determined by incorporation of radioligand into L1210 murine leukemia at a concentration of 1 ug/mL. (*: >50% cell kill); conditions: Mus musculus
L1210 [19] = assay: Effect on DNA synthesis was determined by incorporation of radioligand into L1210 murine leukemia at a concentration of 0.1 ug/mL; conditions: Mus musculus
RPMI-8226 [20] = assay: Effect on DNA synthesis was determined by incorporation of radioligand into 8226 human myeloma cells at a concentration of 10 ug/mL (*: >1 log cell kill)
RPMI-8226 [21] = assay: Effect on RNA synthesis was determined by incorporation of radioligand into 8226 human myeloma cells at a concentration of 10 ug/mL (*: >1 log cell kill)
L1210 [22] = assay: Effect on RNA synthesis was determined by incorporation of radioligand into L1210 murine leukemia at a concentration of 0.01 ug/mL; conditions: Mus musculus
L1210 [23] = assay: Effect on RNA synthesis was determined by incorporation of radioligand into L1210 murine leukemia at a concentration of 0.1 ug/mL; conditions: Mus musculus
L1210 [24] = assay: Effect on RNA synthesis was determined by incorporation of radioligand into L1210 murine leukemia at a concentration of 1 ug/mL. (*: >50% cell kill); conditions: Mus musculus
RPMI-8226 [25] = assay: Effect on protein synthesis was determined by incorporation of radioligand into 8226 human myeloma cells at a concentration of 0.1 ug/mL
L1210 [26] = assay: Effect on RNA synthesis was determined by incorporation of radioligand into L1210 murine leukemia at a concentration of 10 ug/mL (*: >1 log cell kill); conditions: Mus musculus
RPMI-8226 [27] = assay: Effect on RNA synthesis was determined by incorporation of radioligand into 8226 human myeloma cells at a concentration of 0.01 ug/mL
RPMI-8226 [28] = assay: Effect on RNA synthesis was determined by incorporation of radioligand into 8226 human myeloma cells at a concentration of 0.1 ug/mL
RPMI-8226 [29] = assay: Effect on protein synthesis was determined by incorporation of radioligand into 8226 human myeloma cells at a concentration of 0.01 ug/mL
L1210 [30] = assay: Effect on protein synthesis was determined by incorporation of radioligand into L1210 murine leukemia at a concentration of 0.1 ug/mL; conditions: Mus musculus
RPMI-8226 [31] = assay: Effect on protein synthesis was determined by incorporation of radioligand into 8226 human myeloma cells at a concentration of 10 ug/mL (*: >1 log cell kill)
L1210 [32] = assay: Effect on DNA synthesis was determined by incorporation of radioligand into L1210 murine leukemia at a concentration of 10 ug/mL (*: >1 log cell kill); conditions: Mus musculus
RPMI-8226 [33] = assay: Effect on DNA synthesis was determined by incorporation of radioligand into 8226 human myeloma cells at a concentration of 1 ug/mL. (*: >50% cell kill)
L1210 [34] = assay: Effect on protein synthesis was determined by incorporation of radioligand into L1210 murine leukemia at a concentration of 0.01 ug/mL; conditions: Mus musculus
L1210 [35] = assay: Effect on protein synthesis was determined by incorporation of radioligand into L1210 murine leukemia at a concentration of 1 ug/mL. (*: >50% cell kill); conditions: Mus musculus
RPMI-8226 [36] = assay: Effect on DNA synthesis was determined by incorporation of radioligand into 8226 human myeloma cells at a concentration of 0.01 ug/mL
L1210 [37] = assay: Effect on protein synthesis was determined by incorporation of radioligand into L1210 murine leukemia at a concentration of 10 ug/mL (*: >1 log cell kill); conditions: Mus musculus
L1210 [38] = assay: Effect on DNA synthesis was determined by incorporation of radioligand into L1210 murine leukemia at a concentration of 0.01 ug/mL; conditions: Mus musculus
RPMI-8226 [39] = assay: Effect on DNA synthesis was determined by incorporation of radioligand into 8226 human myeloma cells at a concentration of 0.1 ug/mL

NCCN(CCO)Cc1c2ccccc2c(CN(CCN)CCO)c2ccccc12
IC50 [1]: 5.76 µM
IC50 (WiDr): 5.04 µM

c1ccc2c(CC3=NCCN3)c3ccccc3c(CC3=NCCN3)c2c1
IC50 [1]: 4.36 µM
IC50 [2]: 5.6 µM

CN(C)CCCNCc1c2ccccc2c(CNCCCN(C)C)c2ccccc12
IC50 [2]: 56.8 µM
IC50 (RPMI-8226 [3]): 11 µM

CCN1CCCC(NCc2c3ccccc3c(CNC3CCCN(CC)C3)c3ccccc23)C1 (configuration not stated)
IC50 (RPMI-8226 [3]): 0.04 µM
IC50 (WiDr): 5.63 µM

c1ccc2c(CNCCN3CCOCC3)c3ccccc3c(CNCCN3CCOCC3)c2c1
ILS at 100 mg/kg (P388 [4]): 9%
IC50 [1]: 0.03 µM
ILS at 44 mg/kg (P388 [5]): 15%
ILS at 100 mg/kg (P388 [6]): 40%
ILS at 30 mg/kg (P388 [7]): 5%
ILS at 44 mg/kg (P388 [8]): -5%
ILS at 67 mg/kg (P388 [9]): 15%
IC50 (RPMI-8226 [3]): 0.02 µM
ILS at 100 mg/kg (P388 [10]): -34%
ILS at 125 mg/kg (P388 [11]): -81%
ILS at 67 mg/kg (P388 [12]): 9%
ILS at 67 mg/kg (P388 [13]): 33%
IC50 (WiDr): 0.02 µM
ILS at 44 mg/kg (P388 [14]): 28%
ILS at 30 mg/kg (P388 [15]): 4%

OCCCCCNCc1c2ccccc2c(CNCCCCCO)c2ccccc12
IC50 [1]: 24.7 µM
IC50 (RPMI-8226 [3]): 4.67 µM
IC50 (WiDr): 13.4 µM

OCCOCCNCc1c2ccccc2c(CNCCOCCO)c2ccccc12
IC50 [1]: 6.57 µM
IC50 (RPMI-8226 [3]): 0.23 µM
IC50 (WiDr): 2.91 µM

CN1CCN(Cc2c3ccccc3c(CN3CCN(C)CC3)c3ccccc23)CC1
IC50 (RPMI-8226 [3]): 0.1 µM
IC50 (WiDr): 10.4 µM

CN(C)CCN(C)Cc1c2ccccc2c(CN(C)CCN(C)C)c2ccccc12
IC50 [1]: 0.7 µM
IC50 (RPMI-8226 [3]): 0.29 µM
IC50 (WiDr): 0.14 µM

OCCNCc1c2ccccc2c(CNCCO)c2ccccc12
IC50 [1]: 74.9 µM
IC50 (RPMI-8226 [3]): 27.8 µM

NCCNCc1c2ccccc2c(CNCCN)c2ccccc12
IC50 [1]: 4.14 µM
IC50 (RPMI-8226 [3]): 692 µM
IC50 (WiDr): 0.42 µM

CC(C)N(CCNCc1c2ccccc2c(CNCCN(C(C)C)C(C)C)c2ccccc12)C(C)C
IC50 (RPMI-8226 [3]): 7.63 µM
IC50 (WiDr): 15.5 µM

C(=N\Nc1nccs1)/c1c2ccccc2c(/C=N/Nc2nccs2)c2ccccc12
IC50 [1]: 8.8 µM
IC50 [2]: 200 µM
IC50 (RPMI-8226 [3]): 6.26 µM
IC50 (WiDr): 5.9 µM

OCCCNCc1c2ccccc2c(CNCCCO)c2ccccc12
IC50 [1]: 18.2 µM

CNCCN(C)Cc1c2ccccc2c(CN(C)CCNC)c2ccccc12
IC50 [1]: 3.42 µM
IC50 (RPMI-8226 [3]): 3.51 µM
IC50 (WiDr): 1.93 µM

C(=N\NC1=NCCN1)/c1c2ccccc2c(/C=N/NC2=NCCN2)c2ccccc12 [BISANTRENE]
inhibition at 1 µg/mL (RPMI-8226 [16]): 41.9%
inhibition at 1 µg/mL (RPMI-8226 [17]): 91.6%
inhibition at 1 µg/mL (L1210 [18]): 43.6%
IC50 [1]: 2.4 µM
inhibition at 0.1 µg/mL (L1210 [19]): 9.3%
inhibition at 10 µg/mL (RPMI-8226 [20]): 97.7%
inhibition at 10 µg/mL (RPMI-8226 [21]): 92.9%
inhibition at 0.01 µg/mL (L1210 [22]): 0%
inhibition at 0.1 µg/mL (L1210 [23]): 24.1%
inhibition at 1 µg/mL (L1210 [24]): 21.7%
IC50 [2]: 0.38 µM
inhibition at 0.1 µg/mL (RPMI-8226 [25]): 20.2%
inhibition at 10 µg/mL (L1210 [26]): 96.1%
inhibition at 0.01 µg/mL (RPMI-8226 [27]): 0%
IC50 (RPMI-8226 [3]): 0.23 µM
inhibition at 0.1 µg/mL (RPMI-8226 [28]): 21%
inhibition at 0.01 µg/mL (RPMI-8226 [29]): 0%
inhibition at 0.1 µg/mL (L1210 [30]): 5.6%
inhibition at 10 µg/mL (RPMI-8226 [31]): 63.5%
inhibition at 10 µg/mL (L1210 [32]): 66.8%
inhibition at 1 µg/mL (RPMI-8226 [33]): 79.9%
inhibition at 0.01 µg/mL (L1210 [34]): 0%
inhibition at 1 µg/mL (L1210 [35]): 48.5%
inhibition at 0.01 µg/mL (RPMI-8226 [36]): 0%
IC50 (WiDr): 0.44 µM
inhibition at 10 µg/mL (L1210 [37]): 89%
inhibition at 0.01 µg/mL (L1210 [38]): 1.8%
inhibition at 0.1 µg/mL (RPMI-8226 [39]): 33.3%
